In this series the test system is reverse yeast three-hybrid strain. The series is described as follows: 5-FOA effect on growth of reverse yeast three-hybrid strain. It is filed as cell-based, Saccharomyces cerevisiae. Conditions: 5-FOA concentrations beyond 0.3%. An excerpt:
First, we recombined the URA3 gene at the ura3-52 locus of our chemical complementation yeast strain, FY251, and selected for Ura^+ phenotype on medium lacking uracil to create VC2169. Next, the vectors carrying the DBD-DHFR and GR-B42 constructs were introduced into VC2169 and selected on plates lacking uracil, histidine, and tryptophan to create VC2291. Finally, we introduced the LexA(4op) and the Spo13 promoter upstream of the URA3 gene and selected for Ura^− phenotype on medium containing 5-FOA. This selection provided numerous reverse three-hybrid colonies. Three colonies were used to optimize the reverse yeast three-hybrid system for the highest fold increase in activation in the presence of 10 μM Mtx-Dex by measuring the difference between cell survival and cell death. Mtx-Dex was used, instead of Mtx-Cel-Dex, for the optimization of the system as the cellulose linker is not necessary for the system's functioning, and the synthesis of Mtx-Dex is simpler than that of Mtx-Cel-Dex. The system was optimized by varying the level of galactose, which affects the concentration of DBD-DHFR and AD-GR in the system, and 5-FOA, which controls the toxicity level of the reporter gene. Galactose levels ranging from 1 to 2% and 5-FOA concentrations ranging from 0.1 to 0.5% were tested simultaneously. […]

Each structure is given as a SMILES string.

On to `O=C(O)c1[nH]c(=O)[nH]c(=O)c1F` [5-FOA, 5-fluoroorotic acid], for which the “effect on cell growth” value is “detrimental for cell growth”.

For the origin of these results see patent US9169481B2, “Cell-mediated directed evolution” (priority 2006, dated 2015).
